The text below walks through data of patent publication US8697739B2, “Bicyclic acetyl-CoA carboxylase inhibitors and uses thereof” (Novartis AG, priority 2010, dated 2014).

In this assay the target is T1, human acetyl-CoA carboxylase 2 (ACC2) (Homo sapiens, UniProt O00763).
T1 construct: The cDNA encoding amino acids 144 to 2458 of human acetyl-CoA carboxylase 2; made in house; host or cells: Sf9 insect cells (baculovirus, pFastBac1)
T1 sequence (O00763 144-2458): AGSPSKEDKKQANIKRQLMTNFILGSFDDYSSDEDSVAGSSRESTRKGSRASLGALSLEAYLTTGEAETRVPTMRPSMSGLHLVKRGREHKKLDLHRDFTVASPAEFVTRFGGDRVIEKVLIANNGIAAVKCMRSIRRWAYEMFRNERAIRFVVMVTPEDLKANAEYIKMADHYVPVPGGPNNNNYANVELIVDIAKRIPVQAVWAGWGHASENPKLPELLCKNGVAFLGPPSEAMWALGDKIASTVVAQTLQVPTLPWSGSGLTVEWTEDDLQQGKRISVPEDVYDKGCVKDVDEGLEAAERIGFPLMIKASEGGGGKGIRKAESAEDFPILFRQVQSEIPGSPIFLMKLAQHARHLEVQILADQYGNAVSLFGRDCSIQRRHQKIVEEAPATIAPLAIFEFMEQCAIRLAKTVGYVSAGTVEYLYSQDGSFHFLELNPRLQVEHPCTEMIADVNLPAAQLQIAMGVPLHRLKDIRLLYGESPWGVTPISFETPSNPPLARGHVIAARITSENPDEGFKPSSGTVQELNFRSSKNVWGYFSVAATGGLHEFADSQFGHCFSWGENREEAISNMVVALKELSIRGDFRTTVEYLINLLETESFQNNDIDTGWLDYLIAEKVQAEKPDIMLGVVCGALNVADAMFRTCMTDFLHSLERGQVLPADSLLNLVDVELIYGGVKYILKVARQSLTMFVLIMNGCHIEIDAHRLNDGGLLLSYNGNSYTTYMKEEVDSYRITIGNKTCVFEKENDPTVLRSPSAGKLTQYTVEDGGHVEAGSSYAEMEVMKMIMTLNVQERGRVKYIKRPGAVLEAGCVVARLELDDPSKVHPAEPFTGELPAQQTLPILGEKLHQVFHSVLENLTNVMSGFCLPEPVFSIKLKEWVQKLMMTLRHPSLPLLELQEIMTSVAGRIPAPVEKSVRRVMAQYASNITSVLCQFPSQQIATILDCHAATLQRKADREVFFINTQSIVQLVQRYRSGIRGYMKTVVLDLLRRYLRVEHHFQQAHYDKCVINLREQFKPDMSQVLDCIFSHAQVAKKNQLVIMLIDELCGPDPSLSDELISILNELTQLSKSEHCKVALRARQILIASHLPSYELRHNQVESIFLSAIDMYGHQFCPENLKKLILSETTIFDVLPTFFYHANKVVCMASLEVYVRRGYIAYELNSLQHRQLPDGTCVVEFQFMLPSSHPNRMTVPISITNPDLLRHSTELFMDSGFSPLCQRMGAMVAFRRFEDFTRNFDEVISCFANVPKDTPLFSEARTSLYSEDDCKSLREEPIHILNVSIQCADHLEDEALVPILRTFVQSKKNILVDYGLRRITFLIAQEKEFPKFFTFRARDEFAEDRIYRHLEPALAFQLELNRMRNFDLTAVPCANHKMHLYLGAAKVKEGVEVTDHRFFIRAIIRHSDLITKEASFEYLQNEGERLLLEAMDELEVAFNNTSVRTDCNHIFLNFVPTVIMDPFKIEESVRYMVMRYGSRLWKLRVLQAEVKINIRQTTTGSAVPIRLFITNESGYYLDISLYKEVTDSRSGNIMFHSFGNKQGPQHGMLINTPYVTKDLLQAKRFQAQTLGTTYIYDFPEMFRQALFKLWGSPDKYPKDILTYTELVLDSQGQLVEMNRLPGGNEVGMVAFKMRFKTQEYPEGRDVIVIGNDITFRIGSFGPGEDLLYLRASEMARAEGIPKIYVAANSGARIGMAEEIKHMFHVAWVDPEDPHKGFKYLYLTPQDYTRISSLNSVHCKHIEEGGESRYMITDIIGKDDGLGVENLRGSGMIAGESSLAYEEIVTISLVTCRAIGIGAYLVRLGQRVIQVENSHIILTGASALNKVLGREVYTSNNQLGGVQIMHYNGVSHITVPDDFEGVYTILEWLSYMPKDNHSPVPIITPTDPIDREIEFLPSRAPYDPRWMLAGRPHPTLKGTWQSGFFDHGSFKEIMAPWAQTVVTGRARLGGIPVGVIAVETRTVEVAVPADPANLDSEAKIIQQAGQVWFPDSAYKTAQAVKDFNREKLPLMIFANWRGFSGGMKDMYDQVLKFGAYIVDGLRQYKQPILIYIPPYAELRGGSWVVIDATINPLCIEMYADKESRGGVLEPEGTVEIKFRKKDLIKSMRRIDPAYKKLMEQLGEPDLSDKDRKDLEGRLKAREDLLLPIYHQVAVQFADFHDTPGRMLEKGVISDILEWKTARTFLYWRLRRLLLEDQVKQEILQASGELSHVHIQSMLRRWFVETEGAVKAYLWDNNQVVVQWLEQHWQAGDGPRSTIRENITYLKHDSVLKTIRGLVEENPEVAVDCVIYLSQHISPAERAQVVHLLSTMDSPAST
Kind of assay: Acetyl-CoA carboxylase enzyme assay (malonyl-CoA formation by LC/MS/MS). As to conditions: recombinant human ACC2 (aa 144-2458); read-out: IC50 ACC2. The class given is biochemical. A digest of the protocol: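 Malonyl-CoA formation was read by LC/MS/MS MRM against a [13C3]-malonyl-CoA internal standard, after acetic acid quench. The enzyme was baculovirus/Sf9-expressed human ACC2 residues 144–2458, given 15 minutes room-temperature compound preincubation in HEPES pH 7.5 buffer with MgCl2, citrate and DTT. Substrate solution held 50 μM acetyl-CoA, 120 μM ATP and 2 mM KHCO3.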
As for `COC(=O)C(C)(C)[C@@H](NC(=O)[C@H]1CC[C@H](NS(=O)(=O)c2ccc3cc(C4CC4)n(C)c3c2)CC1)c1ccccc1` [Example 396, (S)-methyl 3-((1r,4S)-4-(2-cyclopropyl-1-methyl-1H-indole-6-sulfonamido)cyclohexanecarboxamido)-2,2-dimethyl-3-phenylpropanoate], the half-inhibitory concentration (IC50) (commonly the midpoint of a concentration-inhibition curve) is 10 nM.

`Cc1nc2cc(S(=O)(=O)N[C@H]3CC[C@H](c4nnc(C(C)(C)C)o4)CC3)ccc2[nH]1` [Example 615, N-((1r,4r)-4-(5-tert-butyl-1,3,4-oxadiazol-2-yl)cyclohexyl)-2-methyl-1H-benzo[d]imidazole-5-sulfonamide]: the half-maximal inhibitory concentration (IC50) was 11500 nM.

On to `Cn1c(-c2ccccc2)cc2cc(S(=O)(=O)N[C@H]3CC[C@H](C(=O)N4CC(C(=O)O)CCC4c4ccccc4)CC3)ccc21` (stereo partly shown) [Example 93, 1-((1r,4r)-4-(1-methyl-2-phenyl-1H-indole-5-sulfonamido)cyclohexanecarbonyl)-6-phenylpiperidine-3-carboxylic acid], for which the IC50 is 545 nM.

In the case of `Cc1ccccc1-c1cc2ccc(S(=O)(=O)N[C@H]3CC[C@H](C(=O)N4CCOCC4)CC3)cc2[nH]1` [Example 136, N-((1R,4r)-4-(morpholine-4-carbonyl)cyclohexyl)-2-o-tolyl-1H-indole-6-sulfonamide], the IC50 was determined as 187 nM.

For `C[C@@H](NC(=O)[C@H]1CC[C@H](NS(=O)(=O)c2ccc3[nH]c(-c4cccnc4)cc3c2)CC1)c1ccc(F)cc1` [Example 285, (1r,4R)-N-((R)-1-(4-fluorophenyl)ethyl)-4-(2-(pyridin-3-yl)-1H-indole-5-sulfonamido)cyclohexanecarboxamide], the half-inhibitory concentration (IC50) worked out at 12 nM.

Consider `Cn1c(-c2ccc(CCC(=O)O)cc2)cc2ccc(S(=O)(=O)N[C@H]3CC[C@H](C(=O)N4CCCC4C(C)(C)C)CC3)cc21` (stereo partly shown) [Example 395, 3-(4-(6-(N-((1r,4r)-4-(2-tert-butylpyrrolidine-1-carbonyl)cyclohexyl)sulfamoyl)-1-methyl-1H-indol-2-yl)phenyl)propanoic acid], for which the 50% inhibitory concentration (IC50) is less than 10 nM.

Regarding `CN1CCN(c2ccc3cc(S(=O)(=O)N[C@H]4CC[C@H](C(=O)N[C@H](c5ccccc5)C(C)(C)O)CC4)ccc3n2)CC1` [Example 258, (1r,4R)-N-((R)-2-hydroxy-2-methyl-1-phenylpropyl)-4-(2-(4-methylpiperazin-1-yl)quinoline-6-sulfonamido)cyclohexanecarboxamide], the IC50 was 80 nM.

With `C[C@@H](NC(=O)[C@H]1CC[C@H](NS(=O)(=O)c2ccc3c(c2)NC(=O)CO3)CC1)c1ccc(F)cc1` [Example 112, (1r,4R)-N-((R)-1-(4-fluorophenyl)ethyl)-4-(3-oxo-3,4-dihydro-2H-benzo[b][1,4]oxazine-6-sulfonamido)cyclohexanecarboxamide], the IC50 came to 344 nM.

For `Cn1c(-c2ccccc2)cc2ccc(S(=O)(=O)N[C@H]3CC[C@H](C(=O)N4CCN[C@H](C(F)(F)F)C4)CC3)cc21` [Example 331, 1-methyl-2-phenyl-N-((1S,4r)-4-((S)-3-(trifluoromethyl)piperazine-1-carbonyl)cyclohexyl)-1H-indole-6-sulfonamide], the IC50 turned out to be 25 nM.

Take `C[C@@H](NC(=O)[C@H]1CC[C@H](NS(=O)(=O)c2ccc3nc(N4CCNC5(CC5)C4)ccc3c2)CC1)c1ccc(F)cc1` [Example 237, (1r,4R)-4-(2-(4,7-diazaspiro[2.5]octan-7-yl)quinoline-6-sulfonamido)-N-((R)-1-(4-fluorophenyl)ethyl)cyclohexanecarboxamide]: the IC50 was 85 nM.

Take `C[C@@H](NC(=O)[C@H]1CC[C@H](NS(=O)(=O)c2ccc3c(c2)N(C)C(=O)CO3)CC1)c1ccc(F)cc1` [Example 156, (1r,4R)-N-((R)-1-(4-fluorophenyl)ethyl)-4-(4-methyl-3-oxo-3,4-dihydro-2H-benzo[b][1,4]oxazine-6-sulfonamido)cyclohexanecarboxamide]: the IC50 came to 183 nM.

`Cc1cc(C(=O)O)ccc1-c1cc2ccc(S(=O)(=O)N[C@H]3CC[C@H](C(=O)N[C@H](C)c4ccc(F)cc4)CC3)cc2[nH]1` [Example 301, 4-(6-(N-((1R,4r)-4-((R)-1-(4-fluorophenyl)ethylcarbamoyl)cyclohexyl)sulfamoyl)-1H-indol-2-yl)-3-methylbenzoic acid]: the 50% inhibitory concentration (IC50) is less than 10 nM.

Take `CC(=O)c1ccc(Nc2nc3cc(S(=O)(=O)Nc4ccc(C(=O)OC(C)C)cc4)ccc3[nH]2)cc1` [Example 548, isopropyl 4-(2-(4-acetylphenylamino)-1H-benzo[d]imidazole-5-sulfonamido)benzoate]: the concentration for half-maximal inhibition (IC50) turned out to be 75 nM.

For the compound `CC(NC(=O)[C@H]1CC[C@H](NS(=O)(=O)c2ccc3[nH]c(-c4cccnc4)cc3c2)CC1)c1ccncc1` (stereo partly shown) [Example 283, (1r,4r)-4-(2-(pyridin-3-yl)-1H-indole-5-sulfonamido)-N-(1-(pyridin-4-yl)ethyl)cyclohexanecarboxamide], the IC50 was 256 nM.

Regarding `O=C([C@H]1CC[C@H](NS(=O)(=O)c2ccc3cc(-c4ccc(F)cc4)[nH]c3c2)CC1)N1CCNC(C(F)(F)F)C1` (stereo partly shown) [Example 348, 2-(4-fluorophenyl)-N-((1r,4r)-4-(3-(trifluoromethyl)piperazine-1-carbonyl)cydohexyl)-1H-indole-6-sulfonamide], the IC50 is 45 nM.

As for `C[C@@H](NC(=O)[C@H]1CC[C@H](NS(=O)(=O)c2ccc3c(Cl)c[nH]c3c2)CC1)c1ccc(F)cc1` [Example 26, (1r,4R)-4-(3-chloro-1H-indole-6-sulfonamido)-N—((R)-1-(4-fluorophenyl)ethyl)cyclohexanecarboxamide], the IC50 worked out at 20 nM.

Regarding `CCOc1ccc2cc(S(=O)(=O)N[C@H]3CC[C@H](C(=O)N[C@H](COC(=O)[C@@H](N)C(C)C)c4ccccc4)CC3)ccc2n1` [Example 266, (S)-((S)-2-((1r,4S)-4-(2-ethoxyquinoline-6-sulfonamido)cyclohexanecarboxamido)-2-phenylethyl) 2-amino-3-methylbutanoate], the IC50 stood at 140 nM.

For the compound `CCOC(=O)COc1ccc2cc(S(=O)(=O)N[C@H]3CC[C@H](C(=O)N[C@H](C)c4ccc(F)cc4)CC3)ccc2n1` [Example 73, ethyl 2-(6-(N-((1R,4r)-4-((R)-1-(4-fluorophenyl)ethylcarbamoyl)cyclohexyl)sulfamoyl)quinolin-2-yloxy)acetate], the half-maximal inhibitory concentration (IC50) is 175 nM.

With `O=C(NC1Cc2ccccc2C1)[C@H]1CC[C@H](NS(=O)(=O)c2ccc3[nH]c(-c4ccccc4)nc3c2)CC1` [Example 638, (1r,4r)-N-(2,3-dihydro-1H-inden-2-yl)-4-(2-phenyl-1H-benzo[d]imidazole-5-sulfonamido)cyclohexanecarboxamide], the IC50 amounted to 125 nM.

For the compound `C[C@@H](NC(=O)[C@H]1CC[C@H](NS(=O)(=O)c2ccc3cc(CCOS(C)(=O)=O)[nH]c3c2)CC1)c1ccc(F)cc1` [Example 306, 2-(6-(N-((1R,4r)-4-((R)-1-(4-fluorophenyl)ethylcarbamoyl)cyclohexyl)sulfamoyl)-1H-indol-2-yl)ethyl methanesulfonate], the IC50 turned out to be 50 nM.

In the case of `C[C@@H](NC(=O)C1CCC(NS(=O)(=O)c2cnc3c(c2)N[C@@H](Cc2ccccc2)CS3)CC1)c1ccc(F)cc1` (stereo partly drawn) [Example 189, 4-((S)-2-benzyl-2,3-dihydro-1H-pyrido[2,3-b][1,4]thiazine-7-sulfonamido)-N-((R)-1-(4-fluorophenyl)ethyl)cyclohexanecarboxamide], the IC50 is 75 nM.

Take `C[C@@H](NC(=O)[C@H]1CC[C@H](NS(=O)(=O)c2ccc3[nH]ccc3c2)CC1)c1ccc(F)cc1` [Example 16, (1r,4R)—N—((R)-1-(4-fluorophenyl)ethyl)-4-(1H-indole-5-sulfonamido)cyclohexanecarboxamide]: the IC50 came to 51 nM.

Consider `C[C@@H](NC(=O)[C@H]1CC[C@H](NS(=O)(=O)c2ccc3nc(NCCN(C)C)ccc3c2)CC1)c1ccc(F)cc1` [Example 215, (1r,4R)-4-(2-(2-(dimethylamino)ethylamino)quinoline-6-sulfonamido)-N-((R)-1-(4-fluorophenyl)ethyl)cyclohexanecarboxamide], for which the IC50 worked out at 125 nM.

For the compound `CC(C)OC(=O)c1ccc(NS(=O)(=O)c2ccc3nc(-c4ccc(C(=O)O)cc4)[nH]c3c2)cc1` [Example 509, 4-(6-(N-(4-(isopropoxycarbonyl)phenyl)sulfamoyl)-1H-benzo[d]imidazol-2-yl)benzoic acid], the concentration for half-maximal inhibition (IC50) was determined as 678 nM.

As for `CC[C@H]1CCc2cc(S(=O)(=O)N[C@H]3CC[C@H](C(=O)N[C@H](C)c4ccc(F)cc4)CC3)ccc2N1` [Example 170, (1r,4R)-4-((S)-2-ethyl-1,2,3,4-tetrahydroquinoline-6-sulfonamido)-N-((R)-1-(4-fluorophenyl)ethyl)cyclohexanecarboxamide], the IC50 came out at 90 nM.

Regarding `C[C@@H](NC(=O)[C@H]1CC[C@H](NS(=O)(=O)c2cnc3c(c2)N(C2CC2)CCN3C)CC1)c1ccc(F)cc1` [Example 132, (1r,4R)-4-(1-cyclopropyl-4-methyl-1,2,3,4-tetrahydropyrido[3,2-b]pyrazine-7-surfonamido)-N-((R)-1-(4-fluorophenyl)ethyl)cyclohexanecarboxamide], the IC50 was found to be 68 nM.

Take `COC(=O)c1ccc(-c2nc3cc(S(=O)(=O)N[C@H]4CC[C@H](C(=O)N[C@H](C)c5ccccc5)CC4)ccc3[nH]2)cc1` [Example 275, methyl 4-(5-(N-((1R,4r)-4-((R)-1-phenylethylcarbamoyl)cyclohexyl)sulfamoyl)-1H-benzo[d]imidazol-2-yl)benzoate]: the 50% inhibitory concentration (IC50) worked out at 18 nM.

Consider `Cn1c(-c2ccc(CCC(=O)O)cc2)cc2ccc(S(=O)(=O)N[C@H]3CC[C@H](C(=O)N4CCCC4c4ccc(F)cc4)CC3)cc21` (stereo partly shown) [Example 387, 3-(4-(6-(N-((1r,4r)-4-(2-(4-fluorophenyl)pyrrolidine-1-carbonyl)cyclohexyl)sulfamoyl)-1-methyl-1H-indol-2-yl)phenyl)propanoic acid], for which the IC50 is less than 10 nM.
